# Biological target: PARP7 (Homo sapiens (Human), UniProt Q7Z3E1)
# Experiment: Enzymatic assay for inhibition of PARP7: TR-FRET displacement of biotinylated Probe A from the TIPARP active site
# Type: binding
# Details: Table A-1
# In short: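 Compounds were tested as dose-response series, and reactions were incubated a further 30 min at 25° C. TR-FRET was read at 320 nm excitation with 615 and 665 nm emission after a 90 μs delay. The 665/615 ratio gave the TIPARP–Probe A complex, and % inhibition was fitted against concentration.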
# PARP7, sequence (Q7Z3E1 whole entry): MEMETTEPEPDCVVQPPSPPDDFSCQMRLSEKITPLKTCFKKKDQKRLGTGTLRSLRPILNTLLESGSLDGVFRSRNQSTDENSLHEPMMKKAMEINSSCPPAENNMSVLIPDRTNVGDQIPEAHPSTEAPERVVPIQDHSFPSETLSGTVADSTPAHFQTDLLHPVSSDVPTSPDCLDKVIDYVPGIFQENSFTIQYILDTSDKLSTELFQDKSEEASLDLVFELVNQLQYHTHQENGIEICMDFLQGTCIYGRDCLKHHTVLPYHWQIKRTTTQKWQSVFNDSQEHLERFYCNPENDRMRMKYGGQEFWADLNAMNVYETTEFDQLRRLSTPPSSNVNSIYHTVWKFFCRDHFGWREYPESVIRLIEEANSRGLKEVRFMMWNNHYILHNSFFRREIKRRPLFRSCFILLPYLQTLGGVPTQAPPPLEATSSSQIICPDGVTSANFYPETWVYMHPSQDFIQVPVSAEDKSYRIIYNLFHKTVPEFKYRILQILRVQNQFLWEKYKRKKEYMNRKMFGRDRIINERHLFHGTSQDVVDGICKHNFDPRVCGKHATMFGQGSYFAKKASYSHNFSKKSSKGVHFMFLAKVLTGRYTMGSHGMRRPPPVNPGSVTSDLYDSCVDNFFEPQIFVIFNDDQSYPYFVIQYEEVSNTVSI
row,SMILES,IC50
1,"C[C@@H](COCCC(=O)N1CCN(c2ccc(C#N)cn2)CC1)Nc1cn[nH]c(=O)c1Br [Example 600, 6-(4-[3-[(2S)-2-[(5-bromo-6-oxo-1,6-dihydropyridazin-4-yl)amino]propoxy]propanoyl]piperazin-1-yl)pyridine-3-carbonitrile]",< 100 nM
2,"O=C(C[C@H]1CC[C@H](COc2cn[nH]c(=O)c2C(F)(F)F)O1)N1CCN(c2ncc(C(F)(F)F)cn2)CC1 (single isomer, unassigned) [Example 574 Isomer B]",100 to 1000 nM
3,"COCCOc1ccc2c(c1)CN(c1cn[nH]c(=O)c1C(F)(F)F)C2 [Example 229, 5-(5-(2-Methoxyethoxy)isoindolin-2-yl)-4-(trifluoromethyl)pyridazin-3(2H)-one]",< 100 nM
4,"COCCOc1cccc2c1CN(c1cn[nH]c(=O)c1Cl)C2 [Example 162, 4-Chloro-5-(4-(2-methoxyethoxy)isoindolin-2-yl)pyridazin-3(2H)-one]",100 to 1000 nM
5,"O=c1[nH]ncc(N2Cc3c(F)ccc(OCCO)c3C2)c1C(F)(F)F [Example 283, 5-(4-Fluoro-7-(2-hydroxyethoxy)isoindolin-2-yl)-4-(trifluoromethyl)pyridazin-3(2H)-one]",100 to 1000 nM
6,"O=C(C[C@@H]1CC[C@H](CNc2cn[nH]c(=O)c2C(F)(F)F)O1)N1CCN(c2ncc(C(F)(F)F)cn2)CC1 [Example 568 Isomer D, 5-((((2R,5S)-5-(2-Oxo-2-(4-(5-(trifluoromethyl)pyrimidin-2-yl)piperazin-1-yl)ethyl)tetrahydrofuran-2-yl)methyl)amino)-4-(trifluoromethyl)pyridazin-3(2H)-one]",< 100 nM
7,"CN(C)CCOc1cccc2c1CN(c1cn[nH]c(=O)c1C(F)(F)F)C2 [Example 212, 5-(4-(2-(Dimethylamino)ethoxy)isoindolin-2-yl)-4-(trifluoromethyl)pyridazin-3(2H)-one]",100 to 1000 nM
8,"C[C@@H](COCCC(=O)N1CCC(Oc2ncc(C#N)s2)C1)Nc1cn[nH]c(=O)c1C(F)(F)F (stereo partly drawn) [Example 718, 2-((1-(3-((S)-2-((6-Oxo-5-(trifluoromethyl)-1,6-dihydropyridazin-4-yl)amino)propoxy)propanoyl)pyrrolidin-3-yl)oxy)thiazole-5-carbonitrile]",< 100 nM
9,"C[C@@H](COCCC(=O)N1CCN(c2cc(C(F)(F)F)ccn2)CC1)Nc1cn[nH]c(=O)c1C(F)(F)F [Example 674, (S)-5-((1-(3-Oxo-3-(4-(4-(trifluoromethyl)pyridin-2-yl)piperazin-1-yl)propoxy)propan-2-yl)amino)-4-(trifluoromethyl)pyridazin-3(2H)-one]",< 100 nM
10,"NCc1ccc2c(c1)CN(c1cn[nH]c(=O)c1C(F)(F)F)C2 [Example 322, 5-(5-(Aminomethyl)isoindolin-2-yl)-4-(trifluoromethyl)pyridazin-3(2H)-one]",100 to 1000 nM
11,"O=c1[nH]ncc(N2Cc3cccc(OC4CCNCC4)c3C2)c1Cl [Example 165, 4-Chloro-5-(4-(piperidin-4-yloxy)isoindolin-2-yl)pyridazin-3(2H)-one]",≥ 1000 nM
12,"O=c1[nH]ncc(N2Cc3ccc(OC4CCCNC4)cc3C2)c1C(F)(F)F (stereo not drawn) [Example 244, 5-(5-(Piperidin-3-yloxy)isoindolin-2-yl)-4-(trifluoromethyl)pyridazin-3(2H)-one]",100 to 1000 nM
13,"C[C@@H](COCCS(=O)(=O)N1CCN(c2ncc(C(F)(F)F)cn2)CC1)Oc1cn[nH]c(=O)c1C(F)(F)F [Example 728, (S)-4-(Trifluoromethyl)-5-((1-(2-((4-(5-(trifluoromethyl)pyrimidin-2-yl)piperazin-1-yl)sulfonyl)ethoxy)propan-2-yl)oxy)pyridazin-3(2H)-one]",< 100 nM
14,"COc1nccc2c1CN(c1cn[nH]c(=O)c1C(F)(F)F)C2 [Example 346, 5-(4-Methoxy-1,3-dihydro-2H-pyrrolo[3,4-c]pyridin-2-yl)-4-(trifluoromethyl)pyridazin-3(2H)-one]",< 100 nM
15,C[C@@H](COC[C@@H]1CCCN1c1cn[nH]c(=O)c1C(F)(F)F)CC(=O)N1CCN(c2ccc(C#N)cn2)CC1 [Example 128A],< 100 nM
16,"CO[C@H](C)[C@@H](COCCC(=O)N1CCN(c2ncc(C(F)(F)F)cn2)CC1)Nc1cn[nH]c(=O)c1C(F)(F)F [Example 699, 5-(((2R,3R)-3-Methoxy-1-(3-oxo-3-(4-(5-(trifluoromethyl)pyrimidin-2-yl)piperazin-1-yl)propoxy)butan-2-yl)amino)-4-(trifluoromethyl)pyridazin-3(2H)-one]",< 100 nM

# The next lines start with the values.
row,IC50,SMILES
1,< 100 nM,"N#Cc1ccc(N2CCN(C(=O)CCCOCC3c4ncccc4CN3c3cn[nH]c(=O)c3C(F)(F)F)CC2)nc1 (stereo not drawn) [Example 411, 6-(4-(4-((6-(6-Oxo-5-(trifluoromethyl)-1,6-dihydropyridazin-4-yl)-6,7-dihydro-5H-pyrrolo[3,4-b]pyridin-7-yl)methoxy)butanoyl)piperazin-1-yl)nicotinonitrile]"
2,< 100 nM,"C[C@H](COc1cn[nH]c(=O)c1C(F)(F)F)OCCC(=O)N1CCN(c2ccc(Cl)cn2)CC1 (single isomer, unassigned) [Example 539 Isomer C]"
3,< 100 nM,"O=C(C[C@H]1CC[C@@H](COc2cn[nH]c(=O)c2C(F)(F)F)O1)N1CCN(c2ncc(Cl)cn2)CC1 (single isomer, unassigned) [Example 565 Isomer C]"
4,< 100 nM,"O=C(C[C@H]1CC[C@H]([C@@H]2CCCN2c2cn[nH]c(=O)c2C(F)(F)F)O1)N1CCN(c2ncc(C(F)(F)F)cn2)CC1 [Example 149D, 5-[(2S)-2-[(2R,5R)-5-(2-oxo-2-[4-[5-(trifluoromethyl)pyrimidin-2-yl]piperazin-1-yl]ethyl)oxolan-2-yl]pyrrolidin-1-yl]-4-(trifluoromethyl)-2,3-dihydropyridazin-3-one]"
5,< 100 nM,"N#Cc1ccc(N2CCN(C(=O)c3nccc(OC[C@@H]4CCCN4c4cn[nH]c(=O)c4C(F)(F)F)n3)CC2)nc1 [Example 66, 6-[4-[(4-[[(2S)-1-[6-oxo-5-(trifluoromethyl)-1,6-dihydropyridazin-4-yl]pyrrolidin-2-yl]methoxy]pyrimidin-2-yl)carbonyl]piperazin-1-yl]pyridine-3-carbonitrile]"
6,< 100 nM,"N#Cc1cnc(N2CCN(C(=O)c3cccc(OCC4CCCN4c4cn[nH]c(=O)c4C(F)(F)F)c3)CC2)nc1 (stereo not drawn) [Example 437, 2-(4-(3-((1-(6-Oxo-5-(trifluoromethyl)-1,6-dihydropyridazin-4-yl)pyrrolidin-2-yl)methoxy)benzoyl)piperazin-1-yl)pyrimidine-5-carbonitrile]"
7,100 to 1000 nM,"N#Cc1ccc(N2CCN(C(=O)CNCC[C@H]3c4ccccc4CN3c3cn[nH]c(=O)c3C(F)(F)F)CC2)nc1 [Example 144B, 6-[4-[2-([2-[(1S)-2-[6-oxo-5-(trifluoromethyl)-1,6-dihydropyridazin-4-yl]-2,3-dihydro-1H-isoindol-1-yl]ethyl]amino)acetyl]piperazin-1-yl]pyridine-3-carbonitrile]"
8,< 100 nM,"C[C@H](CC(=O)N1CCN(c2ccc(C#N)cn2)CC1)OC[C@H](C)Oc1cn[nH]c(=O)c1C(F)(F)F (single isomer, unassigned) [Example 576 Isomer A]"
9,< 100 nM,"N#Cc1ccc(NC2CN(C(=O)CCOC[C@@H]3CCCN3c3cn[nH]c(=O)c3C(F)(F)F)C2)nc1 [Example 107, 6-[[1-(3-[[(2S)-1-[6-oxo-5-(trifluoromethyl)-1,6-dihydropyridazin-4-yl]pyrrolidin-2-yl]methoxy]propanoyl)azetidin-3-yl]amino]pyridine-3-carbonitrile]"
10,< 100 nM,"C[C@@H](CC(=O)N1CCN(c2ccc(C#N)cn2)CC1)OC[C@H](C)Oc1cn[nH]c(=O)c1C(F)(F)F (single isomer, unassigned) [Example 576 Isomer B]"
11,< 100 nM,"N#Cc1ccc(N2CCN(C(=O)c3cc(OCC4c5ccccc5CN4c4cn[nH]c(=O)c4C(F)(F)F)ccn3)CC2)nc1 (stereo not drawn) [Example 355, 6-(4-(4-((2-(6-Oxo-5-(trifluoromethyl)-1,6-dihydropyridazin-4-yl)isoindolin-1-yl)methoxy)picolinoyl)piperazin-1-yl)nicotinonitrile]"
12,< 100 nM,"O=C(c1cncc(OCC2c3ccccc3CN2c2cn[nH]c(=O)c2C(F)(F)F)c1)N1CCN(c2ccc(F)cn2)CC1 (stereo not drawn) [Example 375, 5-(1-(((5-(4-(5-Fluoropyridin-2-yl)piperazine-1-carbonyl)pyridin-3-yl)oxy)methyl)isoindolin-2-yl)-4-(trifluoromethyl)pyridazin-3(2H)-one]"
13,100 to 1000 nM,"C[C@H](COCCC(=O)N1CCN(c2ccc(C#N)cn2)CC1)Oc1cn[nH]c(=O)c1C(F)(F)F [Example 530B, 6-(4-[3-[(2R)-2-[[6-Oxo-5-(trifluoromethyl)-1,6-dihydropyridazin-4-yl]oxy]propoxy]propanoyl]piperazin-1-yl)pyridine-3-carbonitrile]"
14,< 100 nM,"C[C@@H](COC[C@@H]1CCCN1c1cn[nH]c(=O)c1C(F)(F)F)C(=O)N1CCN(c2ccc(C#N)cn2)CC1 (single isomer, unassigned) [Example 94 Isomer B]"
15,< 100 nM,"N#Cc1ccc(N2CCN(C(=O)CCCCCOc3cn[nH]c(=O)c3C(F)(F)F)CC2)nc1 [Example 512, 6-[4-(6-[[6-Oxo-5-(trifluoromethyl)-1,6-dihydropyridazin-4-yl]oxy]hexanoyl)piperazin-1-yl]pyridine-3-carbonitrile]"
16,100 to 1000 nM,"N#Cc1ccc(N2CCN(C(=O)N3CC[C@@H](OC[C@@H]4CCCN4c4cn[nH]c(=O)c4C(F)(F)F)C3)CC2)nc1 [Example 129A, 6-[4-[(3R)-3-[[(2S)-1-[6-oxo-5-(trifluoromethyl)-1,6-dihydropyridazin-4-yl]pyrrolidin-2-yl]methoxy]pyrrolidine-1-carbonyl]piperazin-1-yl]pyridine-3-carbonitrile]"
17,≥ 1000 nM,"COCC1c2ccccc2CN1c1cn[nH]c(=O)c1C(F)(F)F (stereo not drawn) [Example 239, 5-(1-(Methoxymethyl)isoindolin-2-yl)-4-(trifluoromethyl)pyridazin-3(2H)-one]"

# From patent US10550105B2 (Ribon Therapeutics Inc., priority 2018, dated 2020)
